Measurements from patent US20220054451A1, “2,3-DIHYDROBENZO[b]THIOPHENE DERIVATIVES AS HYPOXIA INDUCIBLE FACTOR-2(ALPHA) INHIBITORS” (NiKang Therapeutics, Inc., priority 2018, published 2022).

Target: T1, HIF-2α (Homo sapiens, UniProt Q99814)
T1 construct: endogenous in cells; host or cells: 786-O cells
Experiment: VEGF ELISA assay: VEGF expression in 786-O cells
Type: cell-based
Conditions: VEGF concentration in culture medium by ELISA, compounds from 10 uM down to 1 nM, treated twice, medium collected 24 hours after second treatment
Protocol: The ability of the disclosed compounds to inhibit HIF-2α was measured by determining VEGF expression in 786-O cells. About 7500 786-O cells were seeded into each well of a 96-well, white, clear bottom plate (07-200-566, Fisher Scientific) with 200 ul growth medium. Four hours later, compounds were dispensed into wells by Tecan D300e digital dispenser with starting concentration of 10 uM and ½ log of dilution down to 1 nM as final concentration. Each concentration of treatment was performed in duplicate. About 20 hours later, medium was removed and fresh medium was added, followed by compounds treatment as described above. 24 hours later, cell culture medium was collected to determine VEGF concentration using an ELISA kit (R&D systems, cat #DVE00) following the manufacturer's instruction.
The IC50 is calculated by GraphPad Prism using the dose-response-inhibition (four parameter) equation. The plate with cells was then subjected to CellTiter-Glo luminescence cell viability assay (Promega) to determine the effect of these compounds on cell numbers after the above treatment.

T1 sequence (Q99814 whole entry): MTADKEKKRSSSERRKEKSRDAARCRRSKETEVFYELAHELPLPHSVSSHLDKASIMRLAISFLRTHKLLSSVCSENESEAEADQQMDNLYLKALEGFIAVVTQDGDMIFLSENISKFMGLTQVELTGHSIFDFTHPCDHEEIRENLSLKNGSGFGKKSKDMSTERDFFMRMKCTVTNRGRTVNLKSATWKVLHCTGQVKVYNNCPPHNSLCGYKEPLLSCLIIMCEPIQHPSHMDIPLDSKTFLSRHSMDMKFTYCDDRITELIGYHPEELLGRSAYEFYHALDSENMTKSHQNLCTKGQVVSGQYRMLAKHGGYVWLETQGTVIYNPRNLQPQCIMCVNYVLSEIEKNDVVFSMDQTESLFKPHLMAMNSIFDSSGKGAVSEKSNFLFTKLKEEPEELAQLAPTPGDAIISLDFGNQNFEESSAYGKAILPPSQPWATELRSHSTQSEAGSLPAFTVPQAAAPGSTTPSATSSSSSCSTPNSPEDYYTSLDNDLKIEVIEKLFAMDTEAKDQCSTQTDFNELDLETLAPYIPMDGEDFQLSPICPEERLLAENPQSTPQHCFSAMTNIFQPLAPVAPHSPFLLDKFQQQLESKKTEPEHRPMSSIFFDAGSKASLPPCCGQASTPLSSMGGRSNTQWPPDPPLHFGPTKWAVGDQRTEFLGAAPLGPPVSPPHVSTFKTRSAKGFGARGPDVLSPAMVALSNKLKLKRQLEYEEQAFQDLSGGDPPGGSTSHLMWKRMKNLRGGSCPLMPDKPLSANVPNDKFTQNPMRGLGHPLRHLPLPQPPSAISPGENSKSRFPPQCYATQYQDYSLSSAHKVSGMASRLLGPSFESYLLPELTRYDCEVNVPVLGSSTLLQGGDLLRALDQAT

Row | Compound | EC50 [nM]
1 | N#Cc1cc(Cl)cc(Oc2ccc3c(c2C(F)F)[S@@+]([O-])C(F)(F)[C@H]3F)c1 (single isomer, unassigned) [Compound 6d] | 280
2 | [O-][S@@+]1c2c(ccc(Oc3cc(F)cc(F)c3)c2C(F)F)[C@H](F)C1(F)F (single isomer, unassigned) [Compound 9a] | 970
3 | [O-][S@+]1c2c(ccc(Oc3cc(F)cc(F)c3)c2C(F)F)[C@@H](F)C1(F)F (single isomer, unassigned) [Compound 9b] | 1200
4 | [O-][S@+]1c2c(ccc(Oc3cc(F)cc(F)c3)c2C(F)F)[C@H](F)C1(F)F (single isomer, unassigned) [Compound 9c] | 74
5 | [O-][S@@+]1c2c(ccc(Oc3cc(F)cc(F)c3)c2C(F)F)[C@@H](F)C1(F)F (single isomer, unassigned) [Compound 9d] | 3270
6 | [O-][S@@+]1c2c(ccc(Oc3cc(F)cc(Cl)c3)c2C(F)F)[C@H](F)C1(F)F (single isomer, unassigned) [Compound 12a] | 860
7 | [O-][S@+]1c2c(ccc(Oc3cc(F)cc(Cl)c3)c2C(F)F)[C@@H](F)C1(F)F (single isomer, unassigned) [Compound 12b] | 880
8 | [O-][S@+]1c2c(ccc(Oc3cc(F)cc(Cl)c3)c2C(F)F)[C@H](F)C1(F)F (single isomer, unassigned) [Compound 12c] | 45
9 | [O-][S@@+]1c2c(ccc(Oc3cc(F)cc(Cl)c3)c2C(F)F)[C@@H](F)C1(F)F (single isomer, unassigned) [Compound 12d] | 1600
10 | N#Cc1cc(F)cc(Oc2ccc3c(c2C(F)F)[S+]([O-])C(F)(F)C3(F)F)c1 (single isomer, unassigned) [Compound 13a] | 37
11 | N#Cc1cc(F)cc(Oc2ccc3c(c2C(F)F)[S+]([O-])C(F)(F)C3(F)F)c1 (single isomer, unassigned) [Compound 13b] | 190
12 | N#Cc1cc(F)cc(Oc2ccc3c(c2C(F)F)[S+]([O-])C(F)(F)C3=O)c1 (stereo not shown) [Compound 1, 3-((7-(difluoromethyl)-2,2-difluoro-1-oxido-3-oxo-2,3-dihydrobenzo[b]thiophen-6-yl)oxy)-5-fluorobenzonitrile] | 720
13 | [O-][S+]1c2c(ccc(Oc3cc(F)cc(F)c3)c2C(F)F)C(F)(F)C1(F)F (stereo not shown) [Compound 15, 7-(difluoromethyl)-6-(3,5-difluorophenoxy)-2,2,3,3-tetrafluoro-2,3-dihydrobenzo[b]-thiophene 1-oxide] | 130
14 | N#Cc1cncc(Oc2ccc3c(c2C(F)F)[S+]([O-])C(F)(F)C3(F)F)c1 (stereo not shown) [Compound 16, 5-((7-(difluoromethyl)-2,2,3,3-tetrafluoro-1-oxido-2,3-dihydrobenzo[b]thiophen-6-yl)oxy)nicotinonitrile] | 2390
15 | [O-][S+]1c2c(ccc(Oc3cncc(F)c3)c2C(F)F)C(F)(F)C1(F)F (stereo not shown) [Compound 17, 7-(difluoromethyl)-2,2,3,3-tetrafluoro-6-((5-fluoropyridin-3-yl)oxy)-2,3-dihydrobenzo-[b]thiophene 1-oxide] | 2130
16 | [O-][S+]1c2c(ccc(Oc3cncc(Cl)c3)c2C(F)F)C(F)(F)C1(F)F (stereo not shown) [Compound 18, 6-((5-chloropyridin-3-yl)oxy)-7-(difluoromethyl)-2,2,3,3-tetrafluoro-2,3-dihydrobenzo-[b]thiophene 1-oxide] | 1800
17 | [O-][S+]1c2c(ccc(OC3CC(F)(F)C3)c2C(F)F)C(F)(F)C1(F)F (stereo not shown) [Compound 19, 6-(3,3-difluorocyclobutoxy)-7-(difluoromethyl)-2,2,3,3-tetrafluoro-2,3-dihydrobenzo[b]-thiophene 1-oxide] | 2680
18 | N#Cc1cc(F)cc(Oc2ccc3c(c2C(F)F)S(=O)(=O)C(F)(F)C3(F)F)c1 [Compound 20, 3-((7-(difluoromethyl)-2,2,3,3-tetrafluoro-1,1-dioxido-2,3-dihydrobenzo[b]thiophen-6-yl)oxy)-5-fluorobenzonitrile] | 27
19 | N#Cc1cc(F)cc(Oc2ccc3c(c2Cl)[S+]([O-])C(F)(F)C3(F)F)c1 (stereo not shown) [Compound 28, 3-((7-chloro-2,2,3,3-tetrafluoro-1-oxido-2,3-dihydrobenzo[b]thiophen-6-yl)oxy)-5-fluorobenzonitrile] | 240
20 | N#Cc1cc(F)cc(Oc2ccc3c(c2Cl)S(=O)(=O)C(F)(F)C3(F)F)c1 [Compound 29, 3-((7-chloro-2,2,3,3-tetrafluoro-1,1-dioxido-2,3-dihydrobenzo [b]thiophen-6-yl)oxy)-5-fluorobenzonitrile] | 190
21 | N#Cc1cc(F)cc(Oc2ccc3c(c2Br)[S+]([O-])C(F)(F)C3(F)F)c1 (stereo not shown) [Compound 30, 3-((7-bromo-2,2,3,3-tetrafluoro-1-oxido-2,3-dihydrobenzo[b]thiophen-6-yl)oxy)-5-fluorobenzonitrile] | 390
22 | N#Cc1cc(F)cc(Oc2ccc3c(c2C#N)[S+]([O-])C(F)(F)C3(F)F)c1 (stereo not shown) [Compound 31, 6-(3-cyano-5-fluorophenoxy)-2,2,3,3-tetrafluoro-2,3-dihydrobenzo [b]thiophene-7-carbonitrile 1-oxide] | 190
23 | a mixture of 3-(((1S,3R)-7- (difluoromethyl)-2,2,3-trifluoro-1- oxido-2,3-dihydrobenzo- [b]thiophen-6-yl)oxy)-5- fluorobenzonitrile and 3-(((1R,3S)- 7-(difluoromethyl)-2,2,3- trifluoro-1-oxido-2,3-dihydrobenzo [b]thiophen-6-yl)oxy)-5- fluorobenzonitrile [Compound 3a] | 3500
24 | a mixture of 3-(((1S,3S)-7- (difluoromethyl)-2,2,3-trifluoro-1- oxido-2,3-dihydrobenzo- [b]thiophen-6-yl)oxy)-5- fluorobenzonitrile and 3-(((1R,3R)- 7-(difluoromethyl)-2,2,3- trifluoro-1-oxido-2,3-dihydrobenzo [b]thiophen-6-yl)oxy)-5- fluorobenzonitrile [Compound 3b] | 160
25 | a mixture of 3-fluoro-5-(((1R,3R)- 2,2,3-trifluoro-1-oxido-7- (trifluoromethyl)-2,3- dihydrobenzo[b]thiophen-4-yl)oxy) benzonitrile and 3-fluoro-5- (((1S,3S)-2,2,3-trifluoro-1- oxido-7-(trifluoromethyl)-2,3- dihydrobenzo[b]thiophen-4-yl) oxy)benzonitrile [Compound 27a] | 9400
26 | a mixture of 3-fluoro-5-(((1R,3R)- 2,2,3-trifluoro-7-(methylsulfonyl)- 1-oxido-2,3- dihydrobenzo[b]thiophen-4-yl)oxy) benzonitrile and 3-fluoro-5- (((1S,3S)-2,2,3-trifluoro-7- (methylsulfonyl)-1-oxido-2,3- dihydrobenzo[b]thiophen-4-yl) oxy)benzonitrile [Compound 24b] | 18500
27 | a mixture of 3-fluoro-5-(((1S,3R)- 2,2,3-trifluoro-1-oxido-7- (trifluoromethyl)-2,3- dihydrobenzo[b]thiophen-4-yl)oxy) benzonitrile and 3-fluoro-5- (((1R,3S)-2,2,3-trifluoro-1- oxido-7-(trifluoromethyl)-2,3- dihydrobenzo[b]thiophen-4-yl) oxy)benzonitrile [Compound 27b] | 670
28 | a mixture of 3-fluoro-5-(((1S,3R)- 2,2,3-trifluoro-7-(methylsulfonyl)- 1-oxido-2,3- dihydrobenzo[b]thiophen-4-yl)oxy) benzonitrile and 3-fluoro-5- (((1R,3S)-2,2,3-trifluoro-7- (methylsulfonyl)-1-oxido-2,3- dihydrobenzo[b]thiophen-4-yl) oxy)benzonitrile [Compound 24a] | 8900
